Source: publication PMC7269146, “Jingzhaotoxin-X, a gating modifier of Kv4.2 and Kv4.3 potassium channels purified from the venom of the Chinese tarantula Chilobrachys jingzhao” (The Journal of Venomous Animals and Toxins Including …, 2020)
Where a SMILES comes first, the peptide text is derived from it. Bridges are numbered along the chain shown (N, C = ends).

How the values were obtained:
Assay type in all cases: cell-based
Kv4.2 = molecular target: T1, Kv4.2 (Rattus norvegicus, UniProt Q63881); test: microelectrode voltage-clamp, Xenopus laevis oocytes, Kv4.2; details: +20 mV from -90 mV, n = 5, read-out: inhibition of Kv4.2 current
T1 construct: expressed in transfected cells; host or cells: HEK293t
T1 sequence (Q63881 1-630): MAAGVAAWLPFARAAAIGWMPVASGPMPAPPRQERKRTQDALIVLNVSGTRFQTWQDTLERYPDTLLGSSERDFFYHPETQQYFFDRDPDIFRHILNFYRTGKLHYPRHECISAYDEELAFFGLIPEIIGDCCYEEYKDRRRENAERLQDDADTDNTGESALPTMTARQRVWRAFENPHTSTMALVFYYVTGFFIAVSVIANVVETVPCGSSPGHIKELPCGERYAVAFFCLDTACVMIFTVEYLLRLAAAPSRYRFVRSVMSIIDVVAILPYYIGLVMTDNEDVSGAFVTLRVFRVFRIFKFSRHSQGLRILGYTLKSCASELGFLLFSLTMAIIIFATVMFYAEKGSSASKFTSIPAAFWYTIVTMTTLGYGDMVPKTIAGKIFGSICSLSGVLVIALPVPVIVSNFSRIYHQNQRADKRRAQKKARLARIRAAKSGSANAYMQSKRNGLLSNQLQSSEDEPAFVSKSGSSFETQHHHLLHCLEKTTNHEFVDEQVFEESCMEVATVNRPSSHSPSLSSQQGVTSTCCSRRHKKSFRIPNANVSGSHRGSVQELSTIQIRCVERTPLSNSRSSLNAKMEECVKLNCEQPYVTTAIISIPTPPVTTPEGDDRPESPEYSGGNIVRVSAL
Source text: Rat cDNA genes encoding Kv4.2 (Accession: NM_031730.2) and Kv4.3 (Accession: AB003587.1) were subcloned to vector pcDNA3.1. In addition, human cDNA genes encoding Nav1.7 (Accession: DQ857292.1) and Nav1.5 (Accession: AB158469.2) were subcloned to vectors pcDNA3.1-mod and pcDNA3.1, separately. Then, Kv4.2, Kv4.3, Nav1.5 and Nav1.7 constructs were transiently transfected into the human embryonic kidney 293t (HEK293t) cells using lipofectamine 2000 (Invitrogen, USA) in accordance with manufacturer protocols. Thereafter, HEK293 cells were inoculated within Dulbecco’s modified Eagle’s medium (DMEM) containing 10% fetal bovine serum (FBS) at 5% CO2 and 37°C. The Kv4.3 channel and the Kv4.2 counterpart were then transfected in the absence of β subunit. Subsequently, cells were incubated with a DNA-lipofectamine mixture (one reporter plasmid for green fluorescence protein and channel constructs) for 4-6 h, and were washed with the fresh medium.
Briefly, plasmids were linearized, and transcription was carried out according to the standardized protocol. Afterwards, the capped cRNAs that encoded the related ion channels were prepared. […]

HVA Cav channels = test: whole-cell voltage-clamp, HVA Cav currents of rat DRG neurons; details: 10 μM, n = 3
Kv1.2 = test: microelectrode voltage-clamp, Xenopus laevis oocytes, Kv1.2; details: 10 μM, 300-ms depolarization to +20 mV from -90 mV, pH 7.5, 19-23°C, n = 3
Experimental: (§1) Briefly, plasmids were linearized, and transcription was carried out according to the standardized protocol. Afterwards, the capped cRNAs that encoded the related ion channels were prepared. To conduct transcription in vitro, firstly, NotL was utilized to linearize plasmids pCI that contained both Kv1.1 (Accession: NM_010595.3) and Kv2.1 (Accession: AF026005.1), whereas SphI was adopted to linearize plasmid PcDNA3 containing Kv1.2 (Accession: NM_012970.3) gene. […] Thereafter, the linearized plasmids were used as the templates to synthesize cRNAs in vitro using the large-scale T7 mMESSAGE mMACHINE transcription kit (Ambion, USA).
(§2) A mature female X. laevis was placed on the ice for anesthesia, and then the Xenopus laevis oocytes at stage IV-VI were extracted. Subsequently, those extracted oocytes were treated by collagenase (1 mg/mL) contained within the calcium-depleted ND96 solution (containing 96 mM NaCl, 10 mM HEPES, 1 mM MgCl2, and 2 mM KCl) for defolliculation. […]
(§3) Firstly, the effects of JZTX-X on the isoforms of potassium channels (including Kv1.1-1.3, Kv2.1, as well as Kv4.2-4.3) contained within the X. laevis oocytes were investigated through the microelectrode voltage-clamp approach. […] We also determined the effects of JZTX-X on Ito potassium channels in rat DRG neurons; those current amplitudes were inhibited by 54.4±6.8% when 500 nM JZTX-X was applied (Fig. 3K, n = 5).

Kv1.1 = test: microelectrode voltage-clamp, Xenopus laevis oocytes, Kv1.1; details: 10 μM, 300-ms depolarization to +20 mV from -90 mV, pH 7.5, 19-23°C, n = 3
Experimental: as §1, §2, §3

## CC(C)C[C@@H]1NC(=O)[C@H](CCCCN)NC(=O)[C@H](Cc2ccc(O)cc2)NC(=O)[C@@H]2CSSC[C@@H]3NC(=O)[C@H](Cc4ccc(O)cc4)NC(=O)[C@H](Cc4ccccc4)NC(=O)CNC(=O)[C@H](C)NC(=O)[C@H](CSSC[C@H](NC(=O)[C@@H](N)CC(C)C)C(=O)N[C@@H](CO)C(=O)N[C@@H](CCCNC(=N)N)C(=O)N[C@@H](CCC(=O)O)C(=O)NCC(=O)N[C@@H](CCC(=O)O)C(=O)N[C@@H](Cc4ccccc4)C(=O)N2)NC(=O)[C@H](CSSC[C@@H](C(=O)N[C@@H](Cc2ccc(O)cc2)C(=O)N[C@@H](CCCNC(=N)N)C(=O)N[C@@H](CC(N)=O)C(=O)O)NC(=O)[C@H](Cc2c[nH]cn2)NC(=O)[C@H](CC(C)C)NC(=O)[C@H](C(C)C)NC(=O)[C@H](Cc2ccccc2)NC(=O)[C@H](C)NC(=O)[C@H](CCCCN)NC3=O)NC(=O)[C@H](CCCCN)NC(=O)[C@H](CCCNC(=N)N)NC1=O [JZTX-X, Jingzhaotoxin-X] (H-LCSREGEFCYKLRKCCAGFYCKAFVLHCYRN-OH; disulfide 2-16, 9-21, 15-28; N-terminus assumed)
Kv4.2; 0.1 μM (100 nM)
  inhibition at 0.1 µM: 57.8 ± 4.6%
Kv4.2; 0.5 μM (500 nM)
  inhibition at 0.5 µM: 83.8 ± 5.1%
HVA Cav channels
  inhibition of HVA Cav current: less than 5%
Kv1.2
  inhibition of Kv1.2 current: less than 5%
Kv1.1
  inhibition of Kv1.1 current: less than 5%
